Experimental data published in PMC9657321, “Identification of Boronate-Containing Diarylpyrimidine Derivatives as Novel HIV-1 Non-Nucleoside Reverse Transcriptase Inhibitors” (Molecules, 2022).

Tests used:
[1] = system: wild-type and mutant HIV-1 strains; assay: Anti-HIV-1 activity in MT-4 cells, MTT method, panel of strains (range over strains); type: cell-based; conditions: Human immunodeficiency virus 1, MT4, read-out: EC50 values over wild-type and a panel of single mutations
Method: […]. […] […].
The 3-(4,5-dimethylthiazol-2-yl)-2,5-diphenyltetrazolium bromide (MTT) method was used to evaluate the antiviral activity and cytotoxicity of the synthesized compounds as previously described. At the beginning of each experiment, stock solutions (10× final concentration) of test compounds were added in 25 μL volumes to two series of triplicate wells for allowing the simultaneous evaluation of their effects on mock- and HIV-infected cells. The serial 5-fold dilutions of the compounds were made in flat-bottomed 96-well microtiter trays directly, including untreated control HIV-1 and mock infected cell samples for each sample using a Biomek 3000 robot (Beckman Instruments, Fullerton, CA, USA). […] At 5 days after infection, the viability of mock- and HIV-infected cells was determined spectrophotometrically by means of MTT assay.
(§1) The MTT assay is based on the reduction of yellow-colored MTT (Acros Organics, Geel, Belgium) by mitochondrial dehydrogenase of metabolically active cells to form a blue-purple formazan. The absorbances were read in an eight-channel computer-controlled photometer at the wavelengths of 540 and 690 nm. All data were calculated using the median optical density (OD) value of three wells.

[2] = target: T1, recombinant wild-type HIV-1 RT enzyme (Human immunodeficiency virus type 1 group M subtype B, UniProt P03366); assay: HIV-1 RT inhibition assay (ELISA, Roche RT assay kit); type: biochemical
T1 construct: recombinant wild-type HIV-1 RT enzyme; purchased Roche (Basel, Switzerland)
Method: The HIV-1 RT inhibition assay was performed by using an RT assay kit produced by Roche (Basel, Switzerland).
The biotin-labeled dNTPs were incorporated into the cDNA chain in the presence of RT and bound to streptavidin. The washing buffer was used to wash the unbound dNTPs and add the anti-DIG-POD to the MTPs.
The peroxide substrate (ABST) solution was added to the MTPs, when the unbound anti-DIG-PODs were washed out. […] The absorbance of the sample was determined at OD405 nm using a microtiter plate ELISA reader. The percentage inhibitory activity of RT inhibitors was calculated according to the following formula: % inhibition = [O.D. value with RT but without inhibitors − O.D. value with RT and inhibitors]/[O.D. value with RT and inhibitors − O.D. value without RT and inhibitors].

[3] = Cytotoxicity in mock-infected MT-4 cells, MTT method; type: cell-based; conditions: human
Method: The 3-(4,5-dimethylthiazol-2-yl)-2,5-diphenyltetrazolium bromide (MTT) method was used to evaluate the antiviral activity and cytotoxicity of the synthesized compounds as previously described. At the beginning of each experiment, stock solutions (10× final concentration) of test compounds were added in 25 μL volumes to two series of triplicate wells for allowing the simultaneous evaluation of their effects on mock- and HIV-infected cells. The serial 5-fold dilutions of the compounds were made in flat-bottomed 96-well microtiter trays directly, including untreated control HIV-1 and mock infected cell samples for each sample using a Biomek 3000 robot (Beckman Instruments, Fullerton, CA, USA). HIV-1 (IIIB) and mutant HIV-1 strains (RES056, F227L/V106A, L100I, K103N, E138K, Y181C, and Y188L) stock (50 μL at 100–300 CCID50) (50% cell culture infectious dose) or culture medium was added to either the infected or mock-infected wells of the microtiter tray. Mock-infected cells were used to evaluate the effect on uninfected cells to assess the cytotoxicity of the test compounds. Exponentially growing MT-4 cells were centrifuged for […] at 1000 rpm (Eppendorf 5424, Hamburg, Germany) and then the supernatant was discarded. The MT-4 cells were resuspended at 6 × 10^5 cells/mL and 50 μL aliquots were transferred to the microtiter tray wells. At 5 days after infection, the viability of mock- and HIV-infected cells was determined spectrophotometrically by means of MTT assay.
as §1

[4] = system: HIV-1 F227L + V106A mutant strain; assay: microbe, parasite or virus in culture; type: cell-based; conditions: for EC50: Human immunodeficiency virus 1, MT4, read-out: EC50 F227L + V106A; for RF F227L + V106A: ratio EC50 (resistant viral strain)/EC50 (wild-type viral strain); for SI F227L + V106A: ratio CC50/EC50, F227L + V106A
Method: (§2) All data were calculated using the median optical density (OD) value of three wells.

[5] = system: HIV-1 Y181C mutant strain; assay: microbe, parasite or virus in culture; type: cell-based; conditions: for SI Y181C: ratio CC50/EC50, Y181C; for RF Y181C: ratio EC50 (resistant viral strain)/EC50 (wild-type viral strain); for EC50: Human immunodeficiency virus 1, MT4, read-out: EC50 Y181C, MT-4 cells, Y181C, MTT method
Method: as §2

wild-type HIV-1 (IIIB) = assay: microbe, parasite or virus in culture; type: cell-based; conditions: for EC50: Human immunodeficiency virus 1, MT4, MT-4 cells, HIV-1 IIIB, MTT method; for RF IIIB: ratio EC50(resistant strain)/EC50(wild-type strain); for SI IIIB: selectivity index, ratio CC50/EC50, IIIB
Method: as §2

[6] = system: HIV-1 L100I mutant strain; assay: microbe, parasite or virus in culture; type: cell-based; conditions: for EC50: Human immunodeficiency virus 1, MT4, read-out: EC50 L100I; for SI L100I: ratio CC50/EC50, L100I; for RF L100I: ratio EC50 (resistant viral strain)/EC50 (wild-type viral strain)
Method: as §2

[7] = system: HIV-1 Y188L mutant strain; assay: microbe, parasite or virus in culture; type: cell-based; conditions: for EC50: Human immunodeficiency virus 1, MT4, read-out: EC50 Y188L; for SI Y188L: ratio CC50/EC50, Y188L; for RF Y188L: ratio EC50 (resistant viral strain)/EC50 (wild-type viral strain)
Method: as §2

[8] = system: HIV-1 E138K mutant strain; assay: microbe, parasite or virus in culture; type: cell-based; conditions: for EC50: Human immunodeficiency virus 1, MT4, read-out: EC50 E138K; for SI E138K: ratio CC50/EC50, E138K; for RF E138K: ratio EC50 (resistant viral strain)/EC50 (wild-type viral strain)
Method: as §2

[9] = system: HIV-1 K103N mutant strain; assay: microbe, parasite or virus in culture; type: cell-based; conditions: for EC50: Human immunodeficiency virus 1, MT4, read-out: EC50 K103N, MT-4 cells, K103N, MTT method; for SI K103N: ratio CC50/EC50, K103N; for RF K103N: ratio EC50 (resistant viral strain)/EC50 (wild-type viral strain)
Method: as §2

[10] = system: HIV-1 double-mutant strain RES056 (K103N/Y181C); assay: microbe, parasite or virus in culture; type: cell-based; conditions: for EC50: Human immunodeficiency virus 1, MT4, read-out: EC50 RES056; for RF RES056: ratio EC50(resistant strain)/EC50(wild-type strain); for SI RES056: selectivity index, ratio CC50/EC50, RES056
Method: as §2

| Compound | IC50 [2] | CC50 at 5 days [3] | EC50 [4] | RF F227L + V106A [4] | SI Y181C [5] | RF Y181C [5] | EC50 (wild-type HIV-1 (IIIB)) | RF IIIB (wild-type HIV-1 (IIIB)) | EC50 [6] | SI L100I [6] | RF L100I [6] | EC50 [7] | SI Y188L [7] | EC50 [8] | SI E138K [8] | RF E138K [8] | EC50 [9] | SI K103N [9] | RF K103N [9] | EC50 [10] | other results |
| --- | --- | --- | --- | --- | --- | --- | --- | --- | --- | --- | --- | --- | --- | --- | --- | --- | --- | --- | --- | --- | --- |
| Cc1cc(/C=C/C#N)cc(C)c1Oc1nc(Nc2ccc(B3OC(C)(C)C(C)(C)O3)cc2)nc2ccsc12 [Compound 4a, (E)-3-(3,5-Dimethyl-4-((2-((4-(4,4,5,5-tetramethyl-1,3,2-dioxaborolan-2-yl)phenyl)amino)thieno [3,2-d]pyrimidin-4-yl)oxy)phenyl)acrylonitrile] | 167 ± 31 nM | > 238 µM | > 1.81 µM | 209.7 | > 368 | 74.8 | 9 ± 2 nM | 1.0 | 186 ± 32 nM | > 1285 | 21.4 | 1.61 ± 0.508 µM | > 148 | 21 ± 7 nM | > 11,261 | 2.4 | 5 ± 6 nM | > 47,170 | 0.6 | > 238 µM | EC50 [1]: 5 to 648 nM; fold more potent than NVP ([6]; L100I EC50, versus NVP): 3.3 fold; RF RES056 [10]: > 27516 |
| Cc1cc(/C=C/C#N)cc(C)c1Oc1nc(Nc2ccc(B3OC(C)(C)C(C)(C)O3)cc2)nc2sccc12 [Compound 4b, (E)-3-(3,5-Dimethyl-4-((2-((4-(4,4,5,5-tetramethyl-1,3,2-dioxaborolan-2-yl)phenyl)amino)thieno [2,3-d]pyrimidin-4-yl)oxy)phenyl)acrylonitrile] | 47 ± 1 nM | 22.1 ± 3.69 µM | 3.21 ± 1.97 µM | 313.5 | 33 | 65.9 | 10 ± 3 nM | 1.0 | 280 ± 55 nM | 79 | 27.4 | 2.52 ± 0.238 µM | 9 | 30 ± 9 nM | 732 | 3.0 | 8 ± 2 nM | 2866 | 0.8 | 2.3 ± 0.66 µM | SI F227L + V106A [4]: 7; EC50 [5]: 675 ± 188 nM; SI IIIB (wild-type HIV-1 (IIIB)): 2161; RF Y188L [7]: 246.1; fold more potent than 3b ([10]; RES056 EC50, versus 3b): 75 fold; RF RES056 [10]: 224; SI RES056 [10]: 10 |
| Cc1cc(/C=C/C#N)cc(C)c1Oc1nc(Nc2ccc(B3OC(C)(C)C(C)(C)O3)cc2)nc2c1COC2 [Compound 4c, (E)-3-(3,5-Dimethyl-4-((2-((4-(4,4,5,5-tetramethyl-1,3,2-dioxaborolan-2-yl)phenyl)amino)-5,7-dihydrofuro [3,4-d]pyrimidin-4-yl)oxy)phenyl)acrylonitrile] | 200 ± 28 nM | 80.3 ± 31.3 µM | 5.88 ± 2.52 µM | 431.5 | 63 | 94.2 | 14 ± 6 nM | 1.0 | 553 ± 152 nM | 145 | 40.6 | 3.96 ± 0.894 µM | 20 | 39 ± 18 nM | 2036 | 2.9 | 26 ± 5 nM | 3110 | 1.9 | 13.9 ± 9.32 µM | melting point: 134 to 136 °C; SI F227L + V106A [4]: 14; EC50 [5]: 1280 ± 489 nM; SI IIIB (wild-type HIV-1 (IIIB)): 5890; RF Y188L [7]: 290.3; RF RES056 [10]: 1018; SI RES056 [10]: 6 |
| Cc1cc(C#N)cc(C)c1Oc1nc(Nc2ccc(B3OC(C)(C)C(C)(C)O3)cc2)nc2c1COC2 [Compound 3c, 3,5-Dimethyl-4-((2-((4-(4,4,5,5-tetramethyl-1,3,2-dioxaborolan-2-yl)phenyl)amino) -5,7-dihydrofuro [3,4-d]pyrimidin-4-yl)oxy)benzonitrile] | 228 ± 45 nM | 94.8 ± 32.2 µM | 9.1 ± 2.64 µM | 177.2 | 22 | 85.1 | 51 ± 15 nM | 1.0 | 2430 ± 302 nM | 39 | 47.3 | 4.52 ± 1.54 µM | 21 | 130 ± 41 nM | 731 | 2.5 | 120 ± 19 nM | 792 | 2.3 | 25.8 ± 7.93 µM | melting point: 149 to 151 °C; SI F227L + V106A [4]: 10; EC50 [5]: 4370 ± 2190 nM; SI IIIB (wild-type HIV-1 (IIIB)): 1847; RF Y188L [7]: 87.9; RF RES056 [10]: 503; SI RES056 [10]: < 1 |
